In the supplement of paper PMC10307832:

Legend:
Experiment in all cases: relative viability (nuclei count vs DMSO), 5 days (fraction); higher = more cells survive
[1] = test system: A-427
Method in brief: (§1)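 For relative viability, nuclei counts in treated wells were divided by those in vehicle wells. Lung cancer cell lines had been pin-tool dosed in 1536-well plates the day after seeding and cultured for 5 days, then fixed and stained in one step (final 0.05% Triton X-100, 1% formaldehyde, 1 ug/ml Hoechst) and imaged at 4×. Doses were one drug alone or a fixed anchor-drug dose plus five library-drug doses (not always all listed) in √10 steps, and values are duplicate-plate medians.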

[2] = test system: CAL-12T
Method in brief: as §1

[3] = test system: COR-L 105
Method in brief: as §1

[4] = test system: COR-L23
Method in brief: as §1

[5] = test system: EPLC-272H
Method in brief: as §1

[6] = test system: HOP-62
Method in brief: as §1

[7] = test system: LCLC-103H
Method in brief: as §1

[8] = test system: LXF-289
Method in brief: as §1

[9] = test system: NCI-H1395
Method in brief: as §1

[10] = test system: NCI-H1651
Method in brief: as §1

[11] = test system: NCI-H1975
Method in brief: as §1

[12] = test system: NCI-H1993
Method in brief: as §1

[13] = test system: NCI-H2023
Method in brief: as §1

[14] = test system: NCI-H2085
Method in brief: as §1

[15] = test system: NCI-H2087
Method in brief: as §1

[16] = test system: NCI-H2170
Method in brief: as §1

[17] = test system: NCI-H3122
Method in brief: as §1

[18] = test system: NCI-H596
Method in brief: as §1

[19] = test system: NCI-H647
Method in brief: as §1

[20] = test system: NCI-H650
Method in brief: as §1

[21] = test system: PC-14
Method in brief: as §1

[22] = test system: RERF-LC-KJ
Method in brief: as §1

[23] = test system: SK-MES-1
Method in brief: as §1

In the case of `O=C(O)CCCCC(CCSCc1ccccc1)SCc1ccccc1` (stereo not given) [CPI-613] + CCNC(=O)c1noc(-c2cc(C(C)C)c(O)cc2O)c1-c1ccc(CN2CCOCC2)cc1 [Luminespib] (partner 0.01 µM), the relative viability ([1]; first compound 5 µM) is reported as 0.85, the relative viability ([1]; first compound 15.81 µM) is reported as 0.938 and the relative viability ([1]; first compound 50 µM) is reported as 0.761. It also gave a relative viability ([1]; first compound 158.11 µM) of 0.512, a relative viability ([1]; first compound 500 µM) of 0.126 and a relative viability ([2]; first compound 5 µM) of 0.349. It also gave a relative viability ([2]; first compound 15.81 µM) of 0.325, a relative viability ([2]; first compound 50 µM) of 0.377 and a relative viability ([2]; first compound 158.11 µM) of 0.0292. It also gave a relative viability ([2]; first compound 500 µM) of 0.0074, a relative viability ([3]; first compound 5 µM) of 0.749 and a relative viability ([3]; first compound 15.81 µM) of 0.727. It also gave a relative viability ([3]; first compound 50 µM) of 0.692, a relative viability ([3]; first compound 158.11 µM) of 0.421 and a relative viability ([3]; first compound 500 µM) of 0.127. The relative viability ([4]; first compound 5 µM) was 0.58, the relative viability ([4]; first compound 15.81 µM) was 0.61 and the relative viability ([4]; first compound 50 µM) was 0.664. For the same compound, the relative viability ([4]; first compound 158.11 µM) was 0.108, the relative viability ([4]; first compound 500 µM) was 0.0308 and the relative viability ([5]; first compound 5 µM) was 0.338. The relative viability ([5]; first compound 15.81 µM) was 0.32, the relative viability ([5]; first compound 50 µM) was 0.575 and the relative viability ([5]; first compound 158.11 µM) was 0.0624. The relative viability ([5]; first compound 500 µM) was 0.0121, the relative viability ([6]; first compound 5 µM) was 0.882 and the relative viability ([6]; first compound 15.81 µM) was 0.944. It also gave a relative viability ([6]; first compound 50 µM) of 0.894, a relative viability ([6]; first compound 158.11 µM) of 0.627 and a relative viability ([6]; first compound 500 µM) of 0.607. It also gave a relative viability ([7]; first compound 5 µM) of 0.924, a relative viability ([7]; first compound 15.81 µM) of 0.825 and a relative viability ([7]; first compound 50 µM) of 0.846. The relative viability ([7]; first compound 158.11 µM) was 0.811, the relative viability ([7]; first compound 500 µM) was 0.269 and the relative viability ([8]; first compound 5 µM) was 0.611. For the same compound, the relative viability ([8]; first compound 15.81 µM) was 0.535, the relative viability ([8]; first compound 50 µM) was 0.657 and the relative viability ([8]; first compound 158.11 µM) was 0.206. It also gave a relative viability ([8]; first compound 500 µM) of 0.0484, a relative viability ([9]; first compound 5 µM) of 0.672 and a relative viability ([9]; first compound 15.81 µM) of 0.828. For the same compound, the relative viability ([9]; first compound 50 µM) was 0.749, the relative viability ([9]; first compound 158.11 µM) was 0.665 and the relative viability ([9]; first compound 500 µM) was 0.659. It also gave a relative viability ([10]; first compound 5 µM) of 0.867, a relative viability ([10]; first compound 15.81 µM) of 0.932 and a relative viability ([10]; first compound 50 µM) of 0.841. For the same compound, the relative viability ([10]; first compound 158.11 µM) was 0.185, the relative viability ([10]; first compound 500 µM) was 0.118 and the relative viability ([11]; first compound 5 µM) was 0.173. For the same compound, the relative viability ([11]; first compound 15.81 µM) was 0.171, the relative viability ([11]; first compound 50 µM) was 0.194 and the relative viability ([11]; first compound 158.11 µM) was 0.141. For the same compound, the relative viability ([11]; first compound 500 µM) was 0.28, the relative viability ([12]; first compound 5 µM) was 0.799 and the relative viability ([12]; first compound 15.81 µM) was 0.296. For the same compound, the relative viability ([12]; first compound 50 µM) was 0.917, the relative viability ([12]; first compound 158.11 µM) was 0.611 and the relative viability ([12]; first compound 500 µM) was 0.437. It also gave a relative viability ([13]; first compound 5 µM) of 0.791, a relative viability ([13]; first compound 15.81 µM) of 0.692 and a relative viability ([13]; first compound 50 µM) of 0.736. The relative viability ([13]; first compound 158.11 µM) was 0.052, the relative viability ([13]; first compound 500 µM) was 0.0128 and the relative viability ([14]; first compound 5 µM) was 0.43. The relative viability ([14]; first compound 15.81 µM) was 0.371, the relative viability ([14]; first compound 50 µM) was 0.406 and the relative viability ([14]; first compound 158.11 µM) was 0.177. The relative viability ([14]; first compound 500 µM) was 0.118, the relative viability ([15]; first compound 5 µM) was 0.182 and the relative viability ([15]; first compound 15.81 µM) was 0.165. The relative viability ([15]; first compound 50 µM) was 0.155, the relative viability ([15]; first compound 158.11 µM) was 0.0422 and the relative viability ([15]; first compound 500 µM) was 0.026. It also gave a relative viability ([16]; first compound 5 µM) of 0.754, a relative viability ([16]; first compound 15.81 µM) of 0.573 and a relative viability ([16]; first compound 50 µM) of 0.524. It also gave a relative viability ([16]; first compound 158.11 µM) of 0.196, a relative viability ([16]; first compound 500 µM) of 0.0909 and a relative viability ([17]; first compound 5 µM) of 0.0787. For the same compound, the relative viability ([17]; first compound 15.81 µM) was 0.088, the relative viability ([17]; first compound 50 µM) was 0.0889 and the relative viability ([17]; first compound 158.11 µM) was 0.0798. The relative viability ([17]; first compound 500 µM) was 0.0712, the relative viability ([18]; first compound 5 µM) was 0.954 and the relative viability ([18]; first compound 15.81 µM) was 0.955. For the same compound, the relative viability ([18]; first compound 50 µM) was 1.12, the relative viability ([18]; first compound 158.11 µM) was 0.168 and the relative viability ([18]; first compound 500 µM) was 0.0176. For the same compound, the relative viability ([19]; first compound 5 µM) was 0.133, the relative viability ([19]; first compound 15.81 µM) was 0.152 and the relative viability ([19]; first compound 50 µM) was 0.113. The relative viability ([19]; first compound 158.11 µM) was 0.144, the relative viability ([19]; first compound 500 µM) was 0.119 and the relative viability ([20]; first compound 5 µM) was 0.811. It also gave a relative viability ([20]; first compound 15.81 µM) of 0.732, a relative viability ([20]; first compound 50 µM) of 0.852 and a relative viability ([20]; first compound 158.11 µM) of 0.69. It also gave a relative viability ([20]; first compound 500 µM) of 0.613, a relative viability ([21]; first compound 5 µM) of 0.158 and a relative viability ([21]; first compound 15.81 µM) of 0.185. For the same compound, the relative viability ([21]; first compound 50 µM) was 0.167, the relative viability ([21]; first compound 158.11 µM) was 0.129 and the relative viability ([21]; first compound 500 µM) was 0.0407. For the same compound, the relative viability ([22]; first compound 5 µM) was 1.28, the relative viability ([22]; first compound 15.81 µM) was 1.22 and the relative viability ([22]; first compound 50 µM) was 1.23. For the same compound, the relative viability ([22]; first compound 158.11 µM) was 0.235, the relative viability ([22]; first compound 500 µM) was 0.198 and the relative viability ([23]; first compound 5 µM) was 0.772. It also gave a relative viability ([23]; first compound 15.81 µM) of 0.659, a relative viability ([23]; first compound 50 µM) of 0.666 and a relative viability ([23]; first compound 158.11 µM) of 0.163. The relative viability ([23]; first compound 500 µM) was 0.0794.
